pKi: −log10 of the molar value.
Experiments:
[1] = system: ornithine decarboxylase; conditions: literature; cited from earlier work
[2] = target: T1, RXRγ (Homo sapiens, UniProt P48443); experiment: ligand binding assay, RXRγ; conditions: read-out: RXR Bind Ki γ
T1 sequence (P48443 1-463): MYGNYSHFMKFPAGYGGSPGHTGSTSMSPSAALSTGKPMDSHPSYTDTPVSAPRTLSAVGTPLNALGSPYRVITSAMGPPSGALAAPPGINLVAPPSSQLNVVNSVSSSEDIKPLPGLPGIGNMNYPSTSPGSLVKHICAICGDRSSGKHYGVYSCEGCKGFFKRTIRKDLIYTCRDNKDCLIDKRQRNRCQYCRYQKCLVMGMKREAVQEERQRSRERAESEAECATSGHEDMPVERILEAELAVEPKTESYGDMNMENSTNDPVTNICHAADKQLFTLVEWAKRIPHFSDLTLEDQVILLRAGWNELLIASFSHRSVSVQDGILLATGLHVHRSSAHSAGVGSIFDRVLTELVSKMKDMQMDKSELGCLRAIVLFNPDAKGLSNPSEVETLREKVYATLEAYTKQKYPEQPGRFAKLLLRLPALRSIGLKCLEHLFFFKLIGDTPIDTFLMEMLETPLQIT
Excerpt: (§1) Other assays described below, measure the ability of the compounds of the present invention to bind to, and/or activate various retinoid receptor subtypes. When in these assays a compound binds to a given receptor subtype and activates the transcription of a reporter gene through that subtype, then the compound is considered an agonist of that receptor subtype. […] In the below described assays the ability of the compounds to bind to RARα, RARβ, RARγ, RXRα, RXRβ and RXRγ receptors, and the ability or inability of the compounds to activate transcription of a reporter gene through these receptor subtypes can be tested. […] However, some of the compounds of the invention may behave as retinoid antagonists or partial antagonists and/or as inverse agonists. Because of the complex distribution of the different retinoid receptors in various organs of the mammalian body partial agonists and partial antagonists and compounds which have the characteristics of both may lend themselves to particularly useful therapeutic applications and may avoid serious side effects of conventional retinoid drugs.
(§2) A holoreceptor transactivation assay and a ligand binding assay which measure the antagonist/agonist like activity of the compounds of the invention, or their ability to bind to the several retinoid receptor subtypes, respectively, are described in published PCT Application No. WO WO93/11755 (particularly on pages 30-33 and 37-41) published on Jun. 24, 1993, the specification of which is also incorporated herein by reference. A detailed experimental procedure for holoreceptor transactivations has been described by Heyman et al. Cell 68, 397-406, (1992); Allegretto et al. J. Biol. Chem. 268, 26625-26633, and Mangelsdorf et al. The Retinoids: Biology, Chemistry and Medicine, pp 319-349, Raven Press Ltd., New York, which are expressly incorporated herein by reference. The results obtained in this assay are expressed in EC50 numbers, as they are also in the chimeric receptor transactivation assay. The results of ligand binding assay are expressed in Kd numbers. (See Cheng et al. Biochemical Pharmacology Vol. 22 pp 3099-3108, expressly incorporated herein by reference.)
(§3) Table 1 discloses the activity of certain exemplary compounds of the invention in the above-described chimeric receptor transactivation assay, holoreceptor transactivation assay and a ligand binding assays. Particularly, the transactivation data pertaining to RAR receptors were obtained in the chimeric assay, and the data pertaining to transactivation of RXR receptors were obtained in the holoreceptor transactivation assay.

[3] = target: T2, RXRα (Homo sapiens, UniProt P19793); experiment: ligand binding assay, RXRα; conditions: read-out: RXR Bind Ki α
T2 construct: expressed in transfected cells
T2 sequence (P19793 1-462): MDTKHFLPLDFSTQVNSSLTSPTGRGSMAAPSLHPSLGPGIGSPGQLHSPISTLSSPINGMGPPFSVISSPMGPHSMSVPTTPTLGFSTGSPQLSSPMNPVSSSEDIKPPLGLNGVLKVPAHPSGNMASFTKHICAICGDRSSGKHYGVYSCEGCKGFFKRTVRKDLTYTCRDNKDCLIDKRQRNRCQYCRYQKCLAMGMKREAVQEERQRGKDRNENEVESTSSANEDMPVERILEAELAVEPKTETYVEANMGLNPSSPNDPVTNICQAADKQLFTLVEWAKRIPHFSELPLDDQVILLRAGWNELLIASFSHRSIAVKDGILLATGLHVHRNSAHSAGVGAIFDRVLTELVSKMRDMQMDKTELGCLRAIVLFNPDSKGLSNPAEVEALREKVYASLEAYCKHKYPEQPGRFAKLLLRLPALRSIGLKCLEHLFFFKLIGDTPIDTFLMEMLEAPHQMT
Excerpt: as §1, §2, §3

[4] = target: T3, RARβ (Homo sapiens, UniProt P10826); experiment: ligand binding assay, RARβ; conditions: read-out: RAR Bind Ki β
T3 sequence (P10826 1-448 isoform P10826-2): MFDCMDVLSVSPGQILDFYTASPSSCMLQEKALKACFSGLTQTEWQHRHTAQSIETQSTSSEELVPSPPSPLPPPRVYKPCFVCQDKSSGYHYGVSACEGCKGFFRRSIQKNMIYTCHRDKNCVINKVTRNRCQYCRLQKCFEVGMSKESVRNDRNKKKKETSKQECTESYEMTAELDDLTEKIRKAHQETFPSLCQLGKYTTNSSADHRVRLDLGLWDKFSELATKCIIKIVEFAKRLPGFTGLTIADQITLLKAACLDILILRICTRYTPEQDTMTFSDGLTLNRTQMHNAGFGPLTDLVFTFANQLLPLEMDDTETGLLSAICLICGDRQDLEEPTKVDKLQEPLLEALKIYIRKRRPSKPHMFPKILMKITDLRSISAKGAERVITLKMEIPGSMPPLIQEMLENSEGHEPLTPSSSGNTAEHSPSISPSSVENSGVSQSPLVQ
Excerpt: as §1, §2, §3

[5] = target: T4, RARγ (Homo sapiens, UniProt P13631); experiment: ligand binding assay, RARγ; conditions: read-out: RAR Bind Ki γ
T4 sequence (P13631 1-454): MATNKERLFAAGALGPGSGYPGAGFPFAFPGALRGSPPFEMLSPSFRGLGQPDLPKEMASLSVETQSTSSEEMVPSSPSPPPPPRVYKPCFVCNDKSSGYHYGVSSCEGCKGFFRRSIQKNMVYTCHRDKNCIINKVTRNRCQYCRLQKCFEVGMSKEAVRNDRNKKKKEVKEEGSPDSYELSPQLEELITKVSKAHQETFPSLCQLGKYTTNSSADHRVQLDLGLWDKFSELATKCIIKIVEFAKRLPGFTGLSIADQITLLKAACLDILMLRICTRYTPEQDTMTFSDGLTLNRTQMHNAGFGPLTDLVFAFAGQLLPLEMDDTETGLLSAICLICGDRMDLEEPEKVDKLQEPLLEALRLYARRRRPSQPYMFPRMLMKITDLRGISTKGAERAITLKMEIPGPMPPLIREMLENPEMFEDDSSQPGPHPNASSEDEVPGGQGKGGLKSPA
Excerpt: as §1, §2, §3

[6] = target: T5, RARα (Homo sapiens, UniProt P10276); experiment: ligand binding assay, RARα; conditions: read-out: RAR Bind Ki α
T5 sequence (P10276 1-462): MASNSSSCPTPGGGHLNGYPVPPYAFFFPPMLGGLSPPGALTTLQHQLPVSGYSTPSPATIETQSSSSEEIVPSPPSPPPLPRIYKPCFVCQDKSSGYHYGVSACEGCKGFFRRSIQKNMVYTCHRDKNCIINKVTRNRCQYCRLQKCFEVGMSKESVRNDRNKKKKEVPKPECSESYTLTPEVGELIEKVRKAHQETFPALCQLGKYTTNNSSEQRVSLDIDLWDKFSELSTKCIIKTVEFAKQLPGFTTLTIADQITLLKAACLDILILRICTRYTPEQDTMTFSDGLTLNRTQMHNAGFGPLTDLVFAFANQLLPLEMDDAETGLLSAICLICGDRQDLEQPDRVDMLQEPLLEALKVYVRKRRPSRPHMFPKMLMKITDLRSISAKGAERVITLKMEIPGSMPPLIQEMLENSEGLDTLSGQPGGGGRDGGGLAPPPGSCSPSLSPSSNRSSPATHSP
Excerpt: as §1, §2, §3

CC1=C(/C=C/C(C)=C/C=C/C(C)=C/C(=O)O)C(C)(C)CCC1 [Retinoic acid, retinoic acid]
inhibition of induction of ODC activity by TPA [1]: inhibits this induction of ODC activity by TPA

CC(C)N1C(=O)CC(C)(C)c2cc(N(C)c3ccc(C(=O)O)cc3)ccc21 [Compound 5, 4-[(1-Isopropyl-4,4-dimethyl-2-oxo-1,2,3,4-tetrahydroquinolin-6-yl)methylamino]benzoic Acid]
pKi [2]: < 4.00 | pKi [3]: 4.25 | pKi [4]: < 4.52 | pKi [5]: < 4.52 | pKi [6]: < 4.52

From patent US6127382A, “Amines substituted with a tetrahydroquinolinyl group an aryl or heteroaryl group and an alkyl group, having retinoid-like biological activity” (Allergan Sales, Inc., priority 1999, dated 2000)
